Values quoted from earlier work, collected in US10273264B2, “Cortistatin analogues and syntheses and uses thereof” (President and Fellows of Harvard College, priority 2015, dated 2019).

Legend:
PMF = details: as described in PCT/US2014/72365
[1] = test system: Wnt/beta-catenin target genes in AML cells; details: as described in PCT/US2014/72365
CDK19 = CDK19 (Homo sapiens, UniProt Q9BWU1); details: reported, Cee et al. and US 20120071477
AML cell lines = details: in vitro; as described in PCT/US2014/72365
[2] = test system: cell lines derived from patients with MPNs; details: as described in PCT/US2014/72365
STAT1 phosphorylation = details: as described in PCT/US2014/72365
AML = details: in vivo; as described in PCT/US2014/72365
[3] = test system: beta-catenin activated transcription; details: reporter gene assay; as described in PCT/US2014/72365

Sequence of CDK19 (Q9BWU1 whole entry): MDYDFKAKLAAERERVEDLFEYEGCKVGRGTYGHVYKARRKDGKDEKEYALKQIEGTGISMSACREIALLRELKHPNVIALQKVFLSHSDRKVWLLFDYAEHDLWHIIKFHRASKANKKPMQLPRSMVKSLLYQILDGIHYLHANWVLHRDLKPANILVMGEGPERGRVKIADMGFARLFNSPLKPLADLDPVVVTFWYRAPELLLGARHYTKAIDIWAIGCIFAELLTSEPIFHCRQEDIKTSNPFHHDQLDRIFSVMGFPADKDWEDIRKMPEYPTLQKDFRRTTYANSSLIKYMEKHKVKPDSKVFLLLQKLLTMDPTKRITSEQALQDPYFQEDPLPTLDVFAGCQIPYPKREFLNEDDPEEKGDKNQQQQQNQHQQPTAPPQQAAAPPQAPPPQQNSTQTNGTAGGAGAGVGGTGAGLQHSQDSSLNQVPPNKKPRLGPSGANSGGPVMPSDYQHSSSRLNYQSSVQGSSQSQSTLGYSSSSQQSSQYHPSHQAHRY

Substance: cortistatin A
- efficacy in an in vivo model of PMF (PMF): efficacious
- inhibition of expression of putative Wnt/beta-catenin target genes [1]: inhibits
- binding to CDK19 (CDK19): bind
- inhibition of proliferation of AML cell lines (AML cell lines): inhibit
- inhibition of proliferation of MPN patient-derived cell lines [2]: inhibits
- inhibition of interferon-gamma-stimulated STAT1 phosphorylation (STAT1 phosphorylation): inhibits
- inhibition of AML progression (AML): inhibits
- inhibition of beta-catenin activated transcription [3]: inhibits
